# Columns and labels:
# [1] = Nuclease resistance assay in DMEM with 10% fetal bovine serum; format: in vitro ADME; settings: 0.1 µg/µl, DMEM with 10% FBS, 37°C; 12% PAAG/8M urea gel, Stains-All
# Experimental: Oligonucleotides or conjugates (0.1 µg/µl) were incubated at 37°C in Dulbecco’s Modified Eagle Medium (DMEM) (Sigma, USA) with 10% fetal bovine serum (FBS; GE Healthcare, USA). Reactions were quenched in urea (8M) and immediately frozen in liquid nitrogen, prior to analysis of thawed samples in 12% PAAG/8M urea gels, using Tris-Borate-EDTA (TBE) as running buffer, Stains-All (MP Biomedicals, USA) and photographic gel documentation (VilberLourmat, France).
# RLS40 lymphosarcoma [2] = test: Tumor transplantation assay: RLS40 cells treated ex vivo, then inoculated intramuscularly; format: in vivo, CBA mice; settings: cells treated with 1 µM before transplantation
# Experimental: (§1) RLS40 ascites were taken from CBA mice intraperitoneally injected with tumor cells (2 × 10^6 in 0.2 ml buffered saline) into their abdominal cavities. RLS40 cells, isolated from ascites fluid by filtration through LSM were divided into seven portions: 1) untreated cells; 2) the cells incubated with Lipofectamine; the cells transfected with 1 µM of 3) h-ODN, 4) 2′-OMe, 5) Inh, 6) miR-21-miRNase, or 7) luc-POC each. After 4 h of transfection, cell suspensions (0.1 ml, 2 × 10^6 cells) were intramuscularly inoculated into the right lower limb of CBA mice for solid tumor development. As soon as tumors began to be palpable, the tumor volumes were measured every 2–3 days using calipers. Tumor volumes were calculated as V = (π/6 × length × width × height). Hepatic index was estimated as (liver weight/mouse weight) × 100% and as 5.0% for healthy CBA mice. Tumor doubling time (DT) was estimated as DT = (t − t0) × ln 2/(ln V − ln V0), where (t − t0) indicates the length of time between two measurements of tumor size and V0 and V denote the tumor volume at two points of the measurement ([Ozono et al., 2004]).
# Figure 3 Antitumor effect of miR-21-specific miRNase. (A) Retardation of RLS40 growth in vivo after treatment of RLS40 cells with antisense oligonucleotides, control conjugate (luc-POC), or miR-21-miRNase. (B) Tumor volume on day 19 after RLS40 transplantation. Mice were injected with RLS40 cells either without any treatment (w/t) or treated with Lipofectamine (LF), commercial miR-21 inhibitor at concentration 0.1 µM (Inh 0.1, recommended) and 1 µM (Inh 1, in accordance to concentration of miRNase used in the study), control conjugate (luc-POC, 1 µM), hairpin 2′OMe oligonucleotide (2′-OMe, 1 µM), hairpin antisense oligonucleotide (h-ODN, 1 µM) or miR-21-specific miRNase (miR-21-miRNase, 1 µM). Data were statistically analyzed using two-way ANOVA with post hoc Tukey test. Data are presented as mean ± s.e. p-value indicates a statistically reliable difference. (C) Doubling time of RLS40 tumors after treatment with oligonucleotides and conjugates. TEXT PRINTED IN THE PICTURE: (C) untreated: DT, days: 2,45±0,49 | (C) LF: DT, days: 2,48±0,35 | (C) Inh 0.1: DT, days: 2,56±0,59 | (C) Inh 1: DT, days: 13,90±0,46 | (C) 2’-OMe: DT, days: 3,17±1,45 | (C) luc-POC: DT, days: 2,40±0,45 | (C) h-ODN: DT, days: 3,00±1,83 | (C) miR-21-miRNase: DT, days: 12,77±0,34
# RLS40 lymphosarcoma [3] = test: Hepatic index of mice implanted with treated RLS40 cells; format: in vivo; settings: cells treated with 1 µM; (liver weight/mouse weight) × 100%; 5.0% for healthy CBA mice; Mean ± SE
# Experimental: as §1
# Supplementary Table 2. Hepatic indexes of mice implanted with RLS40 treated with antisense
# oligonucleotides, control luc-POC and miR-21-miRNase
# Type of treatment Hepatic index, %* p-value (vs control)
# * – Mean ± SE; s.i. – statistically insignificant
# Hepatic index was estimated as (liver weight/mouse weight) × 100% and as 5.0% for healthy CBA
# The MDR status of RLS40 may add to the burden on the liver, when this type of tumor
# metastasizes into the liver (Sen’kova et al., 2012). Ex vivo treatment of RLS40 cells by
# oligonucleotides and miRNase avoids the toxic effect of antisense oligonucleotides, their conjugates
# and transfection reagents directly on the tumor-bearing animal. This may allow consideration of
# whether the decrease of migration activity of tumor cells translated into reduced metastatic burden of
# RLS40 on the liver. Treatment of the cells seeding the tumor may not reduce migration and […]
# B16 cells = test: In vitro invasiveness assay (xCELLigence, Matrigel-coated CIM-Plates); format: cell-based, mouse; settings: 1 µM with Lipofectamine; compared with Lipofectamine alone
# Experimental: (§2) B16 cells were pre-seeded (2 × 10^5 per well of 24-well plates) in DMEM/10% FBS a day before transfection. Medium was replaced with serum-free DMEM, prior to incubation for 4 h with h-ODN, 2′-OMe, Inh (hsa-miR-21 5 p inhibitor, Ambion, USA), miR-21-miRNase, or luc-POC, each (0.1 or 1 µM) pre-complexed with Lipofectamine (Thermo Fisher Scientific, USA) in Opti-MEM medium (Thermo Fisher Scientific, USA) according to manufacturer’s instructions, then cells were cultivated in fresh culture standard medium for 24–72 h.
# Real-time cell analysis (xCELLigence, ACEABiosciences, USA) used CIM-Plates held at 37°C under an atmosphere of 5% CO2. Top chamber wells were coated with Matrigel (20 µl per well, diluted 1:40 with cold serum-free DMEM) and allowed to polymerize (4 h at 37°C under 5% CO2) prior to cell seeding. Bottom chamber wells were filled with DMEM/10% FBS (160 µl each), prior to assembly of the chambers, when serum-free DMEM was added to the top wells (30 µl each) and equilibrated (1 h at 37°C under 5% CO2). At 4 h after transfection, B16 cells (4 × 10^4) were seeded into each top chamber well in serum-free DMEM and pre-incubated for 30 min at room temperature before monitoring (xCELLigence set to collect impedance data, reported as cell index at least once every 30 min).
# (§3) Figure 2 Biological effect of the miR-21-specific miRNase. (A) Apoptotic profile of B16 melanoma cells after transfection with miR-21-miRNase and control luc-POC. Cytofluorimetric analysis of cells after staining with Annexin V-FITC/PI 48 h after transfection with miRNase or luc-POC (1 µM) in complex with Lipofectamine2000. Q1—population of living cells; Q2—Annexin V-FITC+/PI-, early apoptosis; Q3—Annexin V-FITC+/PI+, late apoptosis; Q4—Annexin V-FITC-/PI+, necrosis. (B) Average percentage of apoptotic (early and late apoptosis) and necrotic B16 cell population. Data represent mean ± s.e. of four independent experiments.(C, D) Invasion activity of B16 cells after incubation with Lipofectamine (LF) alone or treated with either hairpin antisense oligonucleotide (h-ODN), hairpin 2′-OMe oligonucleotide (2′-OMe), commercial miR-21 inhibitor (Inh), miR-21-miRNase, and control conjugate (luc-POC) in the concentration of 1 µM. Migration of cells was recorded in real time using the xCELLigence cell analysis system. Control—B16 cells without treatment. Data represent mean ± s.d. of four independent experiments.
# B16 melanoma cells = test: Annexin V-FITC/PI apoptosis assay; format: cell-based, mouse; settings: 1 µM with Lipofectamine; 24, 48, 72 h after transfection; maximum extent; flow cytometry
# Experimental: as §2
# At 24, 48, and 72 h after transfection, cells were harvested, washed twice with PBS, resuspended in Binding Buffer to a density of 2–5 × 10^5/ml, and incubated with annexin V-FITC and propidium iodide (PI) (ab14085, Abcam, UK) in the dark at room temperature for 15 min, prior to flow cytometry analysis (Novocyte CEA Biosciences, USA).
# as §3
Substance,Survival (intact) in serum-containing medium [1],Tumor doubling time against w/t (in words) (RLS40 lymphosarcoma [2]),Tumor growth (in words) (RLS40 lymphosarcoma [2]),Hepatic index (RLS40 lymphosarcoma [3]),Migration rate of transfected B16 cells (in words) (B16 cells),Necrosis of melanoma B16 cells (Annexin V-FITC-/PI+) (B16 melanoma cells)
ODN: linear 14-mer deoxyribooligonucleotide TCAGTCTGATAAGC (unmodified DNA),rapidly degraded,–,–,–,–,–
"acetyl-[(LeuArg)2Gly]2-aminohexyl-CGATAAATAACGCGСAAGTCAGCGAAAGCTGACTTG [luc-POC, control peptide-oligonucleotide conjugate; same hairpin, complementary part replaced by luciferase gene fragment]",–,did not show a statistically significant difference,did not differ,5.56±0.11%,almost the same rate as cells incubated with Lipofectamine,up to 6.5%

# Reference: PMC6698794, “Catalytic Knockdown of miR-21 by Artificial Ribonuclease: Biological Performance in Tumor Model” (Frontiers in Pharmacology, 2019)
